This is an account of results in patent US10336788B2, “Inhibition of cardiac fibrosis in myocardial infarction” (Moerae Matrix, Inc., priority 2014, dated 2019).

No end group written: not given here.

For one experiment, the system named is C57BL/6 mice. The experiment can be described thus: Histological analysis of fibrosis (Masson's trichrome, Aperio) of hearts 14 days post-AMI. In kind it is in vivo, mouse. Here is the method: Mice were euthanized by isoflurane and cervical dislocation at day 14, fixed in fresh 4% paraformaldehyde for 24 hours, paraffin embedded, processed, and stained with standard hematoxylin and eosin (H&E) and Masson's trichrome (MT). Starting at the ligation with fully faced tissue, 14-15 levels were cut on each block at 50 μm (one slide for H&E, one for MT, and 3 unstained; 50 μm skipped and then repeated). […] The area of fibrosis was analyzed in 3-4 blindly chosen hearts, each heart at 14-15 levels (point of ligation to apex), 3 sections at each level. Analysis of collagen was performed blinded to treatment on these 42-45 sections per heart. Slides were scanned using an Aperio Scanscope (Aperio Technologies, Vista, Calif.) and analyzed using Aperio Imagescope. The Algorithm Positive Pixel Count v9 was used to measure the Masson's trichrome staining of collagen (representing both fibrosis and collagen in extracellular matrix), hue value (0.66) and hue width (0.1) were used analyzed the tissue outlined using the pen tool. Each section was analyzed and exported. The N positive/N total value (representing the % collagen of the entire section) was used to determine a weighted average for each slide.
Hearts were obtained from AMI mice and histologically analyzed for fibrosis in Masson's trichrome stained sections in a systemic manner (FIG. 2A).

In experiment [1] the test system is primary cardiac fibroblasts. As to the kind of experiment: LDH release assay in primary cardiac fibroblasts (1% hypoxia or normoxia). In kind it is cell-based, rat. The procedure:
H9C2 is a myoblast cell line derived from rat myocardium obtained from ATCC® (CRL-1446, ATCC, Manassas, Va.) and cultured according to the recommended protocols. Briefly, cells were maintained at 37° C. with 5% CO2 in DMEM supplemented with 10% fetal bovine serum and antibiotics (100 U/ml penicillin, […] streptomycin) and split at a ratio of 1:4 using 0.05% trypsin every 36 hours. […]
Cells were rinsed in PMS and grown in DMEM (cat. #11966-025, Gibco) for 2 hours prior to initiating hypoxia (simulated ischemia). […] Three different time points were adopted for each of the three cell lines according to the severity of cell death under hypoxia determined by LDH release: for H9C2 cell line: 8 hr; 16 hr; 24 hr; for HL-1 cell line: 4 hr; 8 hr; 12 hr; […]; 32 hr; 48 hr.
Cell death was first determined using an LDH release assay (cat. #630117, Clontech), according to the manufacturer's instructions. […] Caspase 3/7 activity was next determined using a commercial Caspase 3/7 activity kit (Cat. #G8091, Promega, Madison, Wis. 53711) in a 384 well plate (Cat. #781903, Greiner bio-one) according to the manufacturer's instructions. […] The resulting cell lysates (25 μl, with 0.6 ug total protein) and Caspase-Glo 3/7 Reagent were added to each well in a 1:1 ratio and the luminescence was read (CLARIOstar, BMG LABTECH GmbH). […]
(LDH in the medium is a marker of cell lysis.)

In experiment [2] the test system is pharmacologically relevant receptors. The experiment can be described thus: Cellular functional assays on pharmacologically relevant receptors. In kind it is cell-based. The note with it: data not shown.

As to YARAAARQARAKALARQLGVAA [MMI-0100], the “histology at the site of infarction (myocyte sparing within scar)” value with C57BL/6 mice (AMI mice treated with MMI-0100, AMI alone generally all fibrotic) is “islands of viable myocytes”. The “fibrosis distant to the site of ischemia (histological sections)” value with C57BL/6 mice (AMI mice treated with MMI-0100 vs AMI) is listed as “not found to the same extent”. Moreover, the “less fibrosis than untreated AMI mice” value in the experiment with C57BL/6 mice (AMI mice, 50 μg/kg/day from 30 minutes post-AMI, day 14) was found to be 50%. Further, the “fibrosis, area staining blue (Masson's trichrome collagen)” value in the experiment on C57BL/6 mice (AMI mice, 50 μg/kg/day from 30 minutes post-AMI, day 14, untreated AMI ~21%) is reported as approximately 11%. For the same sequence, the LDH release entry in experiment [1] (16, 32, and 48 hours of hypoxia) was “significantly enhanced”. The “LDH release in normoxic conditions” value in experiment [1] (absence of hypoxia, 4 hours (so in the source)) was “did not enhance LDH release”. The “effect on pharmacologically relevant receptors in cellular functional assays” value in experiment [2] is recorded as “no substantial effect”.
